Literature values, collected in patent US20200399148A1, “METHOD AND APPARATUS FOR ELECTROCHEMICAL pH CONTROL” (BAR-ILAN UNIVERSITY, priority 2018, published 2020).

System: bacteria
Conditions: relative to hypochlorous acid

OCl [OCl^−, hypochlorite anion]
bactericidal activity, times less than hypochlorous acid: 80-120 time less
